Data: PMC10989073, “Antineoplastic effect of compounds C14 and P8 on TNBC and radioresistant TNBC cells by stabilizing the K-Ras4B^G13D/PDE6δ complex” (Frontiers in Oncology, 2024)

How the values were obtained:
Assay type in all cases: cell-based, human
[1] = tested on: MCF-10A cells; assay: Apoptosis/necrosis assay (Annexin V–propidium iodide, flow cytometry); conditions: 24 h, cisplatin 100 µM, doxorubicin 0.5 µM
Protocol: Apoptosis and necrosis were determined using the Apoptosis/Necrosis Detection kit (Abcam, Cambridge, UK) according to the manufacturer’s instructions. In brief, approximately 500,000 cells were seeded in 6-well plates (Corning) for 24 h. […] Cells were harvested and collected by centrifugation. All the samples were analyzed in triplicate using flow cytometry equipment FACSCalibur instrument (BD Biosciences, San Jose, CA, USA) at […] and 575-nm emission. Data analysis was performed using the FlowJo software (Tree Star Inc., Ashland, OR, USA). All experiments were performed in triplicate.

[2] = tested on: MDA-MB-231 cells; assay: as above; conditions: MDA-MB-231, 24 h; C14 and P8 at IC50-24, cisplatin 100 µM, doxorubicin 0.5 µM
Protocol: (§1) To determine if the C14 and P8 compounds were able to evoke cell death by apoptosis or necrosis, cell lines MCF-10A, MDA-MB-231, and MDA-MB-231RR were treated at IC50-24 for 24 h. Apoptosis and necrosis were determined using the Apoptosis/Necrosis Detection kit (Abcam, Cambridge, UK) according to the manufacturer’s instructions. In brief, approximately 500,000 cells were seeded in 6-well plates (Corning) for 24 h. Then, each cell line was treated with the respective IC50-24 concentrations of C14 and P8. […] Cells were harvested and collected by centrifugation. All the samples were analyzed in triplicate using flow cytometry equipment FACSCalibur instrument (BD Biosciences, San Jose, CA, USA) at […] and 575-nm emission. Data analysis was performed using the FlowJo software (Tree Star Inc., Ashland, OR, USA). All experiments were performed in triplicate.

[3] = tested on: MDA-MB-231RR cells; assay: as above; conditions: 24 h, C14 and P8 at IC50-24, cisplatin 100 µM, doxorubicin 0.5 µM
Protocol: as §1

[4] = tested on: MCF-10A cells; assay: Clonogenic assay; conditions: 10 to 12 days, C14 and P8 at IC50-48, cisplatin 100 µM, doxorubicin 0.5 µM
Protocol: (§2) The principal aim of a clonogenic assay is to evaluate the effect of chemotherapy agents or new drugs by the measurement of their ability to arrest tumor cell division and their ability to develop new colonies after their exposure to these new drugs ([56]). Therefore, the colony formation ability of the cell lines MCF-10A, MDA-MB-231, and MDA-MB-231RR was evaluated after their exposure to the C14 and P8 compounds. In brief, breast cancer cell lines were cultured in 6-well plates (Corning), seeding 300 cells per well, and incubated at 37°C in 5% CO2 for 24 h. Compounds C14 and P8 were added at the maximum evaluated concentration IC50-48. As controls, cells without treatment and cells treated in the presence of a vehicle (DMSO at 0.66%) were employed (Sigma-Aldrich). […] After 10 days of treatment, cells were fixed with 4% PFA and stained with 0.1% crystal violet in citric acid (Sigma-Aldrich) for 15 minutes. Subsequently, the dye present in the cells was extracted using isopropanol and read at 570 nm in a Synergy-HTX microplate reader (BioTek). Each test was performed in triplicate. Data were expressed as % colonies relative to the untreated control ([56]).

[5] = tested on: MDA-MB-231 cells; assay: Clonogenic assay; conditions: MDA-MB-231, 10 to 12 days; C14 and P8 at IC50-48, cisplatin 100 µM, doxorubicin 0.5 µM
Protocol: as §2

[6] = tested on: MDA-MB-231RR cells; assay: Clonogenic assay; conditions: 10 to 12 days, C14 and P8 at IC50-48, cisplatin 100 µM, doxorubicin 0.5 µM
Protocol: as §2

[7] = tested on: Ras-GTP in MCF-10A cells; assay: Ras activation pull-down assay (Raf-RBD); conditions: 3 h pre-treatment (C14, P8 at IC50-48H), EGF 100 ng/ml 10 min
Protocol: Subsequently, the cells were stimulated with epidermal growth factor (EGF) (100 ng/ml) for 10 minutes. Lysates (1 mg/ml) were exposed to Ras GTP-binding protein (Raf-RBD), following the manufacturer’s instructions. Experiments for each cell type and condition were repeated three times.

[8] = tested on: cyclin D1 and GSK3β in MDA-MB-231 cells; assay: Western blotting of cyclin D1 and GSK3β; conditions: MDA-MB-231, 3 h; C14 and P8 at IC50-24 (Figure 7 legend), cisplatin 100 µM, doxorubicin 0.5 µM
Protocol: (§3) To determine the effect of the C14 and P8 compounds over the protein effectors of K-Ras4B, AKT, and ERK, immunoblotting assays were conducted with specific antibodies. In brief, MCF-10A, MDA-MB-231, and MDA-MB-231RR cells were plated in 100-mm culture dishes until 80% of confluents. Cell adhesion was allowed for 24 h. […] After pre-treatment, cells were stimulated with 100 ng/ml EGF for 10 minutes to promote AKT and ERK activation. Later, the whole-cell extracts were obtained by the lysis of the cells (Cytoskeleton) in the presence of proteases and phosphatase inhibitors. Subsequently, the protein extracts were incubated at 4°C for 40 minutes to be clarified by centrifugation for 10 minutes at 14,000 rpm, at 4°C. The protein concentration of each extract was determined by using the Precision Red Advanced Protein Assay Reagent (Cytoskeleton) Then, approximately 25 μg of protein extract was electrophoresed in 10% sodium dodecyl sulfate–polyacrylamide gel electrophoresis (SDS-PAGE) and transferred to polyvinylidene fluoride (PVDF) membranes (Millipore, Billerica, MA, USA). Blots were probed using the following primary antibodies: Total ERK (Cell Signaling, Danvers, MA, USA), pERK (Cell Signaling), Total AKT (Cell Signaling), pAKT (Cell Signaling), GSK3β (Cell Signaling), and cyclin D1 (Abcam) at a 1:1,000 dilution. As a control, an anti-GAPDH antibody (GeneTex, Irvine, CA, USA) was employed at a 1:100,000 dilution and γ-Tubulin (Invitrogen) 1:5,000. Densitometric analysis of blots was performed using the software ImageJ version 1.45 (National Institutes of Health, Bethesda, […], USA).

[9] = tested on: cyclin D1 and GSK3β in MDA-MB-231RR cells; assay: Western blotting of cyclin D1 and GSK3β; conditions: 3 h, C14 and P8 at IC50-24 (Figure 7 legend), cisplatin 100 µM, doxorubicin 0.5 µM
Protocol: as §3

[10] = tested on: MDA-MB-231 cells; assay: Cell cycle analysis (propidium iodide, flow cytometry); conditions: MDA-MB-231, 3 h at IC50-48H; control 10.0%
Protocol: After 3-h incubation, cells were harvested, washed twice in ice-cold PBS, and fixed overnight in 70% ethanol at 4°C. Then, cells were washed in PBS, collected by centrifugation, and stained with staining buffer (PBS with 50 µg/ml propidium iodide and 100 µg/ml RNase A).

## COc1cccc2c1C(=O)c1c(O)c3c(c(O)c1C2=O)C[C@@](O)(C(=O)CO)C[C@@H]3O[C@H]1C[C@H](N)[C@H](O)[C@H](C)O1 [Doxorubicin, doxorubicin, reference compound]
[1]
  apoptosis cells: up to 11.54%
[2]
  apoptosis cells: 4.65%
  necrosis: 9.20%
[3]
  apoptosis cells: 0.61%
  necrosis: 1.28%
[4]
  reduction of colony growth: up to 90%
[5]
  reduction in colony formation: significant reduction
[6]
  reduction in colony formation: 90%
[7]
  reduction in Ras-GTP: 40%
[8]
  reduction in cyclin D1 expression: no significant effect
[9]
  reduction in cyclin D1: 20%
[10]
  percentage of cells in G2/M: increased
